Experimental data reported in patent US20040006070A1, “Intraspinal continuous infusion of midazolam hydrochloride for the treatment of pain” (priority 2002, published 2004).
Values joined by “and” are separate entries in the source; they are usually repeats but may differ in a detail not shown here. Identical values can stand only once. Counter-ions that a name gives are not always drawn.

Tests used:
[1] = Toxicity in neuropathic pain sheep: clinical signs, necropsy, histopathology; assay type: in vivo
From the text: Animals will be observed daily for any signs of clinical toxicity such as limping and loss of appetite. At necropsy the spinal cord will be examined for any gross changes. Histopathologic evaluation will be performed on all animals after drug studies are complete. These examinations will detect any neurotoxicity that may be present due to the spinal infusion of midazolam.

[2] = Physiological data: indirect blood pressure, pulse, rectal temperature, weight; assay type: in vivo, sheep
From the text: Daily rectal temperatures were taken and any behavioral/motor changes were noted. Gait monitoring will be conducted as described below based on a four-grade scale for the evaluation of behavioral and motor changes. Grade 0: animal standing, sheep is able to rise and ambulate without any difficulty. Grade 1: Shuffling of either rear leg or slight limp; slight distortion of normal spinal axis. Grade 2: Loss of righting reflex in one of the rear legs, sheep able to stand without assistance, but with some difficulty. Grade 3: Inability to maintain standing posture; attempts to help animal stand are unsuccessful.
Indirect blood pressure, pulse recording, pain testing (mechanical stimulus device, cold and warm water baths see description in procedure) and weight were taken on days 1, 3, 7, 15, 22, 29, 36, and 43. Venous blood samples (15 ml drawn from the jugular vein with Vacutainer brand blood collection tubes) for complete blood count, electrolytes, and extended blood chemistry were drawn on days 1, 15, and 43 (mild procedure only light hand restraint necessary).

[3] = tested on: neuropathic pain model in the sheep; assay: Neuropathic pain model in sheep, behavior monitoring (Observer 3.0) with visual analog pain score; assay type: in vivo; settings: for average pain score: sheep #980 Dudley
From the text: The neuropathic pain model in the sheep is created by placing four tight ligatures around the median, radial, or ulnar nerve (or a combination thereof) with 0-chromic gut suture. This method produces a chronic painful peripheral mononeuropathy which may be related to those conditions seen in humans with causalgia and reflex sympathetic dystrophy.
To evaluate animal behavior, the Observer 3.0 software (Noldus Information Technology, The Netherlands) was used to aid docmentation of a daily record of multiple traits. […] The behavior was then interpreted into a visual analog pain score (VAS), where 0 represents no pain and 100 represents severe pain.
Approximately three days prior to surgery each sheep will undergo a 15-minute baseline behavior evaluation. The observations made in this evaluation include, a computerized behavior software recording (the Observer) for 15minutes—gait monitoring—and recording of pain perception via visual analog scale-using the Observer. In some animals, recording of vital signs (blood pressure, heart rate, respirations per minute) will be performed using the Observer. Baseline values for pain perception are recorded via the mechanical stimulus device and/or behavior monitoring will also be performed at this time.
The sheep will be observed daily postoperatively. […] Observations of neuropathic pain development include changes in ambulation, alertness, appetite, urination, defecation, herding activity, body temperature and pain behaviors. This daily behavior is recorded utilizing the observer (an observational software system).

[4] = double blinded sheep Chicken Hawk #87, 5 mg/day intrathecal infusion, day (1-43), hydrochloride
[5] = double blinded sheep Elmer Fudd #437, 5 mg/day intrathecal infusion, day (1-43), hydrochloride
[6] = double blinded sheep Leghorn II #815, 15 mg/day intrathecal infusion, day (1-43), hydrochloride
[7] = double blinded sheep Petunia #439, 15 mg/day intrathecal infusion, day (1-43), hydrochloride
[8] = double blinded sheep Porky #402, 5 mg/day intrathecal infusion, day (1-43), hydrochloride
[9] = double blinded sheep Roadrunner #84, 15 mg/day intrathecal infusion, day (1-43), hydrochloride
[10] = open label sheep #457 Tazz, 15 mg/day intrathecal infusion, day (1-43), hydrochloride
[11] = open label sheep #498 Toad, 10 mg/day intrathecal infusion, day (1-43), hydrochloride
[12] = open label sheep #518 Sandy, 5 mg/day intrathecal infusion, day (1-43), hydrochloride
[13] = open label sheep Dot #85, 15 mg/day intrathecal infusion, day (1-43), hydrochloride
[14] = open label sheep Wacko #83, 15 mg/day intrathecal infusion, day (1-43), hydrochloride
[15] = open label sheep Yacko #91, 15 mg/day intrathecal infusion, day (1-43), hydrochloride
[16] = sheep Rowdy #819, 5 mg, daily values, hydrochloride, on May 29, 2001
[17] = sheep Rowdy #819, 5 mg, daily values, hydrochloride, on May 30, 2001

SMILES: Cc1ncc2n1-c1ccc(Cl)cc1C(c1ccccc1F)=NC2 [Midazolam, midazolam hydrochloride]
- tolerability ([1]; intrathecal up to 5 mg/day): tolerated well
- necropsy, spinal cord lesions ([1]; sheep #980 Dudley): did not exhibit any spinal cord lesions
- Blood pressure Dia [2, 4]: 62 and 37 and 53 and 51 and 44 and 65 and 69 and 48
- Blood pressure Sys [2, 4]: 112 and 127 and 122 and 132 and 130 and 126 and 151
- Body Temp. Normal 101.3-104.0 [2, 4]: 102.4 and 102.6 and 102.8 and 102.2 and 102.0
- Pulse Rate Normal 55-115 [2, 4]: 75 and 83 and 63 and 101 and 79 and 88 and 84 and 82
- Blood pressure Sys [2, 5]: 122 and 138 and 119 and 131 and 150 and 136 and 139 and 120
- Body Temp. Normal 101.3-104.0 [2, 5]: 102.2 and 102.8 and 101.4 and 102.0 and 101.8
- Pulse Rate Normal 55-115 [2, 5]: 87 and 70 and 80 and 83 and 79 and 73 and 85
- Blood pressure Sys [2, 6]: 130 and 152 and 143 and 160 and 138 and 145
- Body Temp. Normal 101.3-104.0 [2, 6]: 104.2 and 102.4 and 102.8 and 102.2 and 102.6
- Pulse Rate Normal 55-115 [2, 6]: 111 and 144 and 88 and 125 and 121 and 97 and 89 and 87
- Blood pressure Dia [2, 7]: 34 and 49 and 44 and 32 and 26 and 45
- Blood pressure Sys [2, 7]: 133 and 152 and 126 and 132 and 123 and 114 and 120 and 142
- Body Temp. Normal 101.3-104.0 [2, 7]: 102.0 and 102.8 and 103.0 and 101.0 and 102.4
- Pulse Rate Normal 55-115 [2, 7]: 89 and 72 and 74 and 69 and 66 and 63 and 71 and 90
- Blood pressure Dia [2, 8]: 65 and 70 and 42 and 67 and 55 and 68 and 41 and 40
- Blood pressure Sys [2, 8]: 148 and 107 and 140 and 133 and 113 and 135 and 134 and 147
- Body Temp. Normal 101.3-104.0 [2, 8]: 102.0 and 102.6 and 101.0 and 101.2 and 102.2
- Pulse Rate Normal 55-115 [2, 8]: 87 and 99 and 89 and 100 and 90 and 86 and 108
- Blood pressure Dia [2, 9]: 75 and 77 and 49 and 42 and 50 and 51 and 40
- Blood pressure Sys [2, 9]: 137 and 124 and 132 and 116 and 144
- Body Temp. Normal 101.3-104.0 [2, 9]: 101.8 and 101.6 and 102.2 and 104.0 and 102.4 and 102.0 and 102.6
- Pulse Rate Normal 55-115 [2, 9]: 90 and 97 and 104 and 78 and 94 and 130 and 124 and 77
- Blood pressure Dia [2, 10]: 83 and 71 and 68 and 70 and 73 and 88
- Blood pressure sys [2, 10]: 151 and 154 and 145 and 147 and 135
- Body Temp. Normal 101.3-104.0 [2, 10]: 100.8 and 102.2 and 103.0 and 102.0
- Pulse Rate Normal 55-115 [2, 10]: 138 and 77 and 74 and 76 and 79 and 82
- Blood pressure Dia [2, 11]: 98 and 73 and 66 and 109 and 71 and 59 and 58
- Blood pressure Sys [2, 11]: 177 and 143 and 136 and 156 and 153 and 118 and 149
- Body Temp. Normal 101.3-104.0 [2, 11]: 102.0 and 104.2 and 102.8 and 102.4 and 101.8 and 103.0 and 103.2
- Pulse Rate Normal 55-115 [2, 11]: 98 and 79 and 95 and 77 and 104 and 67 and 89 and 78
- Blood pressure Sys [2, 12]: 180 and 150 and 141 and 152 and 147 and 169 and 164 and 185
- Body Temp. Normal 101.3-104.0 [2, 12]: 102.0 and 101.0 and 101.8 and 101.6 and 102.8
- Blood pressure Dia [2, 13]: 68 and 49 and 67 and 59 and 53 and 77 and 57 and 69
- Blood pressure Sys [2, 13]: 128 and 109 and 110 and 133 and 130 and 120 and 155
- Pulse Rate Normal 55-115 [2, 13]: 92 and 89 and 86 and 117 and 85 and 72 and 66 and 71
- Blood pressure Dia [2, 14]: 60 and 45 and 47 and 42 and 51 and 66 and 73 and 70
- Blood pressure Sys [2, 14]: 148 and 166 and 130 and 106 and 102 and 132 and 163 and 128
- Body Temp. Normal 101.3-104.0 [2, 14]: 102.0 and 102.4 and 102.6
- Pulse Rate Normal 55-115 [2, 14]: 104 and 98 and 91 and 92 and 99 and 84 and 75
- Blood pressure Sys [2, 15]: 138 and 143 and 156 and 110 and 151 and 160 and 149
- Pulse Rate Normal 55-115 [2, 15]: 115 and 80 and 84 and 86 and 72 and 82 and 66 and 69
- Blood pre-assure ([2]; sheep Rowdy #819, 10 mg): 136/75
- Pulse ([2]; sheep Rowdy #819, 10 mg): 122
- Blood pre-assure ([2]; sheep Rowdy #819, 15 mg): 143/77
- Pulse ([2]; sheep Rowdy #819, 15 mg): 94
- Respirations per minute ([2]; sheep Rowdy #819, 15 mg): 40 per minute
- VAS score (0 no pain, 100 severe pain) ([3]; average on most days, intrathecal 3 to 6 mg/day, saline pretreatment 60 to 95): approximately 30
- VAS score, average ([3]; first sheep (Rowdy), 5 mg/day): 30%
- analgesia at higher doses ([3]; first sheep (Rowdy), after dose escalation to 15 mg/day): less analgesia
- analgesic activity against neuropathic pain ([3]; intrathecal up to 5 mg/day): had analgesic activity against neuropathic pain
- average pain score ([3]; 3 mg/day for 13 days): 32%
- average pain score ([3]; 6 mg/day, remainder of the study): 35%
- average pain score ([3]; reinstituted 3 mg/day escalated to 5 mg/day over 7 days): 65%
- Other behavior: Observe operated leg ([3]; sheep Rowdy #819, 5 mg): 0.56%
- Eating [3, 16]: 69.88%
- Holding operated leg off the ground [3, 16]: 5.77%
- Holding unoperated leg off the ground [3, 16]: 0.90%
- Walking [3, 16]: 5.07%
- Eating [3, 17]: 83.94%
- Holding operated leg off the ground [3, 17]: 6.24%
- Holding unoperated leg off the ground [3, 17]: 0.56%
- Walking [3, 17]: 4.22%
- Other behavior: Eating lying down ([3]; sheep Rowdy #819, 10 mg): 0.29%
- Eating ([3]; sheep Rowdy #819, 15 mg): 3.29%
- Holding operated leg off the ground ([3]; sheep Rowdy #819, 15 mg): 8.55%
- Holding unoperated leg off the ground ([3]; sheep Rowdy #819, 15 mg): 0.81%
- Other behavior: Bleating ([3]; sheep Rowdy #819, 15 mg): 0.86%
- Other behavior: Pulling wool ([3]; sheep Rowdy #819, 15 mg): 1.11%
- Other behavior: Standing ruminating ([3]; sheep Rowdy #819, 15 mg): 70.19%
- Pain Score ([3]; sheep Rowdy #819, 15 mg): 40
- Standing ([3]; sheep Rowdy #819, 15 mg): 13.79%
- Walking ([3]; sheep Rowdy #819, 15 mg): 1.40%
